Test results published in US20040192581A1, “Topical anti-infective formulations” (priority 2002, published 2004).

Tested on: S. aureus
Assay: In vitro efficacy of nisin cream versus nisin in PBS, viable cell count
Format: cell-based
Conditions: 37° C. for 60 minutes
Experimental: A topical cream (100 g) was prepared by heating the waxes and oils to about 70° C. Nisin in an aqueous solution was added after the cream had cooled to room temperature. The following ingredients were mixed in a 250 mL glass beaker until a homogenous compound was formed:
To test the anti-infective activity of the nisin-based cream, and to compare this activity to that of the same concentration of nisin in PBS, 20 μL of a suspension of 9×10^8 CFU/mL S. aureus was added to 1 g of cream and 1 mL of PBS at the nisin concentrations indicated in Table I. The samples were vortexed to mix and incubated at 37° C. for 60 minutes. 1 mL of mineral oil was added to the cream to facilitate pipetting and then serial dilutions were plated for enumeration of viable cells. The data in Table I show the viable cells for each nisin concentration.

Substance: Nisin
- viable cells, PBS (nisin 0.5 μg/ml in PBS): TNTC
- viable cells, Cream (nisin 0.5 μg/ml in cream): 1082 cfu/ml
- viable cells, PBS (nisin 2.5 μg/ml in PBS): TNTC
- viable cells, Cream (nisin 2.5 μg/ml in cream): 140 cfu/ml
- viable cells, PBS (nisin 12.5 μg/ml in PBS): 482 cfu/ml
- viable cells, Cream (nisin 12.5 μg/ml in cream): 12 cfu/ml
